The test system of data set [1] is growth plates of proximal tibiae. Nature of the data set: Growth plate senescence and longitudinal bone growth in KY19382-treated mice. It counts as in vivo, mouse. On the procedure:
Figure 5. The effects of KY19382 on growth plate senescence and longitudinal bone growth. (A-I) KY19382 (0.1 mg/kg) was administered to 7-wk-old mice (A-E) or 3-wk-old mice (F-I) by daily intraperitoneal injection for 2 wk (n = 7). H&E staining, IHC analyses with the indicated antibodies, and TRAP staining in the growth plates of proximal tibiae treated with KY19382 (A, F). Quantitative analyses of the cell number per column (mean ± SEM, n = 7; t test, ***P < 0.0005) (B) or the height (mean ± SEM, n = 7; t test, ***P < 0.0005) (G) of resting zone and proliferative zone (RZ&PZ) and hypertrophic zone (HZ) in the growth plates of proximal tibiae. Quantitative analyses of BrdU-positive cells in the growth plates (mean ± SEM, n = 5; t test, ***P < 0.0005) (C, H). Quantitative analyses of the number of TRAP-positive foci along 250 μm of the cartilage/bone interface (mean ± SEM, n = 3; t test, *P < 0.05) (D, I). Immunoblot analyses with the indicated antibodies in the growth plate of proximal tibiae of mice treated with KY19382 (E). Scale bars, 50 μm. (J) 3-wk-old mice were intraperitoneally injected with KY19382 (0.1 mg/kg) daily for 10 wk. Representative radiographs are shown (left), and tibial length was measured (right) (mean ± SEM, n = 7-15; t test, ***P < 0.0005). The area within the dashed lines indicates the growth plate zone. n.s., no significance; TRAP, tartrate-resistant acid phosphatase. Cxxc5^-/- mice were established in a previous study ([Kim et al, 2015]). To manipulate growth plate senescence by estrogen, 3-wk-old Cxxc5^+/+ and Cxxc5^-/- male mice received weekly i.m. injections of either 70 μg/kg estradiol (E2) cypionate (Sigma-Aldrich) or vehicle (cottonseed oil) for 3 wk. To investigate the effects of KY19382 treatment on longitudinal bone growth, C57BL/6 male mice were purchased from KOATECH (Gyeonggido, Korea). KY19382 (0.1 mg/kg) was administered daily by i.p. injection to 3- and 7-wk-old mice for 2 wk or to 3-wk-old mice for 10 wk. For BrdU labeling experiments, the mice were i.p. injected with 50 mg/kg BrdU (Sigma-Aldrich) before 24 h to euthanize. All animal procedures were approved by the Institutional Animal Care and Use Committee of Yonsei University (Korea) and conducted based on the guidelines of the Korean Food and Drug Administration. Plain radiographs were taken using an X-ray apparatus (KODAK DXS 4000 Pro SYSTEM; Carestream Health). The tissues were fixed in 4% PFA, decalcified in 10% EDTA (pH 7.4), dehydrated, embedded in paraffin, and sectioned to 4-μm thickness (Leica Microsystems). The tissues sections were rehydrated and used for further analyses, including H&E, TRAP, and IHC staining. To perform IHC staining, the sections were incubated with citrate buffer (pH 6.0) at 80°C for 30 min, with 0.05% trypsin working solution (pH 7.8) for 30 min at 37°C, or with 0.5% pepsin (Sigma-Aldrich) for 15 min at 37°C. Then, the sections were blocked with 5% normal goat serum (Vector Laboratories) and 0.3% Triton X-100 in PBS for 1 h at room temperature. For 3,3'-diaminobensidine (DAB) staining, the sections were incubated with 0.345% H2O2 for 15 min. Before incubating the sections with mouse primary antibody, mouse IgG was blocked using a M.O.M kit (Vector Laboratories). The sections were incubated at 4°C overnight with the following primary antibodies: anti-β-catenin (#610154; 1:50; BD Bioscience), anti-CXXC5 (1:200; lab-made) anti-BrdU ([…]; 1:200; DAKO), anti-COL2A1 (PA5-11462; 1:100; Thermo Fisher Scientific), anti-Ki67 (ab15580; 1:200; Abcam), and anti-RUNX2 (ab23981; 1:200; Abcam). Then, the sections were incubated at room temperature for 1 h with biotinylated anti-mouse (BA-9200; 1:200; Vector Laboratories) or biotinylated anti-rabbit (BA-1000; 1:200; Vector Laboratories) secondary antibodies. The sections were then incubated in avidin-biotin complex solutions (Vector Laboratories), stained with a DAB kit (Vector Laboratories) for 3-30 min, and counterstained with methyl green (Sigma-Aldrich). […]

Data set [2] can be described thus: In vivo pharmacokinetics of KY19382. As to conditions: SD male rat; for AUC(0-t): 0 to 24 hour. On the procedure: Animal studies were approved by the Institutional Animal Care and use committee at KRIBB. Briefly, specific pathogen-free male Sprague−Dawley (SD) rats (10 weeks old, body weight 298−315 g), purchased from Koatech Co. […] Dosing solutions were prepared in dimethylacetamide (DMAC)/polyethylene glycol 400 (PEG400) (20/80, v/v %) for administrations, and administered at dosing volumes of 5 and 10 ml/kg for iv and ip, respectively. A 100 μl aliquot of each plasma sample was prepared, and three volumes of ice-cold acetonitrile containing carbamazepine (internal standard) were added. The mixture was centrifuged at 910 g for 10 minutes, and the supernatant was subjected to LC−MS/MS analysis. Pharmacokinetic parameters were calculated by standard noncompartmental analysis of plasma concentration−time profiles using Kinetica 4.4.1 (Thermo Fisher Scientific, Inc., Woburn, MA, USA). The areas under the plasma concentration−time curves (AUC) were calculated by the linear−trapezoidal method. Systemic plasma clearance (CLP) was calculated as follows: CLP = dose/AUCinf. Terminal elimination half-life (t1/2) was calculated by the following equation: t1/2 = 0.693/λZ where λZ is the terminal disposition rate constant. Volume of distribution at steady state (VSS) was calculated as follows: VSS = dose × AUMCinf/(AUCinf)^2, where AUMCinf is the area under the first moment of the plasma concentration−time curve extrapolated to infinity. Bioavailability (F) was calculated as follows: F (%) = (AUCip/AUCiv)(doseiv/doseip) × 100.
Pharmacokinetic parameters were based on the mean plasma concentration-time profiles of SD male rat (n=3). Pharmacokinetic parameters were obtained by non-compartmental analysis of the plasma concentration-time profiles using KineticaTM 4.4.1 (Thermo Fisher Scientific, Inc., Woburn, MA, USA). AUClast was calculated from 0 to 24 hour. IV, intravenous; IP, intraperitoneal; Tmax, Time to maximum plasm concentration; Cmax, Maximum plasma concentration after intraperitoneal injection; AUC, Area under the curve; CL, clearance; Vss, Volume of distribution at steady state; T1/2, Elimination half-life; F, bioavailability.

The mark [3] stands for this setting: 3-wk-old mice, 0.1 mg/kg i.p. daily for 2 wk.
Setting [4] is: 7-wk-old mice, 0.1 mg/kg i.p. daily for 2 wk.
Setting [5] is: Sprague-Dawley, plasma, IP, 5 mg/kg, mean.
The mark [6] stands for this setting: Sprague-Dawley, plasma, IV, 1 mg/kg, mean.

For the molecule `CON=C1C(=C2C(=O)Nc3cc(Cl)c(Cl)cc32)Nc2ccccc21` [KY19382, 5,6-dichloroindirubin-3′-methoxime], in data set [1] (setting [3]), the “BrdU-positive cells in growth plate” value is given as “elevated” and the “height of each growth plate zone” value was “elevated”. Moreover, in data set [1] (3-wk-old mice, 0.1 mg/kg i.p. daily for 2 wk, vs vehicle), the “number of TRAP-positive foci in the growth plate/trabecular interface” value is listed as “not different”. Further, in data set [1] (3-wk-old mice, 0.1 mg/kg i.p. daily for 10 wk, vs vehicle), the length of tibiae entry is “significantly increased”. Besides, in data set [1] (setting [4]), the “nuclear β-catenin in growth plate chondrocytes” value is reported as “dramatically increased”; the “numbers of proliferative and hypertrophic chondrocytes per column” value is on record as “increased numbers”; the “total growth plate height (COL2A1 immunostaining)” value is on record as “significantly increased”. The “TRAP-positive foci at cartilage/bone interface” value in data set [1] (7-wk-old mice, 0.1 mg/kg i.p. daily for 2 wk, vs vehicle) is “elevated”. In data set [2] (IP, 5 mg/kg, mean), this molecule displayed a CL of 0.47 L/h/kg. The bioavailability – broadly, dose-corrected exposure relative to a reference, in per cent – in data set [2] (Sprague-Dawley, plasma, intraperitoneal, IP 5 mg/kg vs IV 1 mg/kg, read-out: F (intraperitoneal bioavailability)) was 16.7%. In addition, in data set [2] (setting [5]), the concentration peaked (Cmax) at 0.463 µg/mL; the Tmax – broadly, the time at which the peak concentration occurs – was found to be 1 h; the half-life (in general, the time needed for the level to fall by half in the phase considered) was 16.2 h; the AUC(0-t) – broadly, the area under the concentration-time curve up to a stated or last time point – was determined as 6.56 µg·h/mL. In data set [2] (setting [6]), the clearance (as a rule, the rate of elimination divided by the concentration) is 0.12 L/h/kg; the half-life was 3.33 h; the exposure AUC(0-t) is 7.83 µg·h/mL. Further, the Vd in data set [2] (Sprague-Dawley, plasma, IV, 1 mg/kg, mean, read-out: Vss) was 0.33 L/kg.
